The source of these data is publication PMC6382874, “Succinylation-dependent mitochondrial translocation of PKM2 promotes cell survival in response to nutritional stress” (Cell Death & Disease, 2019).

One test concerns HCT116 cells. The experiment in a line: cell viability test, HCT116. The settings on record: cell viability, 48 h, read-out: IC50 (HCT116). In kind it is cell-based, human. The method, then: (§1) We assessed the anti-tumor effects of compound 8 by evaluation of cancer cell viability. Compound 8 reduced cell viability with an IC50 of about 5 µM in MTT reduction assays in HCT116, MCF7, and H1299 cells (Table 2). […] To determine whether cancer cell death brought about by compound 8 is PKM2 dependent, PKM2 was knocked down in HCT116 cells using two different shRNA sequences that specifically targeted exon 10 without interfering with PKM1 expression. Compound 8 is an inhibitor which causes a loss of function of PKM2. If PKM2 is a specially targeted by compound 8, its knockdown should render cells more vulnerable to compound 8-mediated PKM2 inhibition since shRNA and compound 8 work synergistically by reducing the intracellular drug target concentration.
Cells were seeded in 96-well plates at 5000 cells/well in DMEM media overnight. Cells were treated with different concentrations of test compound for 48 h at 37 °C in 5% CO2. Cell viability was assayed with the MTS assay (Promega) and trypan blue staining according to the manufacturer’s instructions.

Test [1] deals with PKM2 knockdown HCT116 cells. Briefly: annexin v stain apoptosis assay in PKM2 knockdown cells. In kind it is cell-based, human. The settings on record: 20 µM, 12 h.
From the text: Fig. 5 Identification and characterization of PKM2 inhibitors. a PKM2 inhibitors. […] It prints only the data set name 'Data: pkm2_NDH', so the substance label is left empty. / Panel b, N: small print, 0.941 ±0.0712, digits uncertain / Panel b, K: small print, 8.63E4 ±3.63E4, the digits 8, 6 and 3 are uncertain / Panel b, ΔH: small print, -5962 ±675.9, the digits 5, 9 and 6 are uncertain / Panel b, ΔS: small print, 2.59, the digits 5 and 9 are uncertain
as §1
Two shRNAs with PKM2 specific exon 10 sequence knockdown were used (5'-[…]-3'; 5'-[…]-3'), and a shRNA with no effect on PKM2 levels was employed as a control (5'-[…]-3). […]

Test [2] relates to PKM2 mitochondrial translocation. Briefly: PKM2 mitochondrial translocation (fractionation, western blot) in HCT116 cells. It counts as cell-based, human. Conditions: 20 μM, glucose starvation, HCT116. As to the method:
(§2) Fig. 6 Compound 8 blocks PKM2 mitochondrial translocation under nutritional stress and inhibits tumor growth in vivo. a Compound 8 blocks glucose starvation induced PKM2 mitochondrial translocation. Isolation of mitochondria and immunoblot of PKM2, tubulin and Tom 40 were carried out with or without compound 8 treatment. b Compound 8 disrupts interaction of PKM2 and VDAC3. HCT116 cells were transfected with HA-tagged PKM2, cells were harvested and subjected to stag pull down after 8 h 20 µM compound 8 treatment. c Compound 8 induces VDAC3 for degradation. cells were harvested and evaluated VDAC3 protein levels after 8 h 10 or 20 µM compound 8 treatment. d, e Compound 8 caused a decrease in the rate of NADH oxidation. After 8 h of treatment with 20 µM compound 8, HCT116 cells mitochondria were isolated for NADH oxidation assays. NAD/NADH ratios in HCT116 cell lysates were evaluated by LC–MS. f Compound 8 inhibited ATP production in HCT116 cells. g The tumor volume (n = 7) of HCT116 xenografts from mice with intraperitoneal injection of compound 8 and vehicle control
HCT116 cells were harvested and washed two times with cold PBS. Cells were then homogenized in a buffer (220 mM mannitol, 70 mM sucrose, 2 mM EGTA, 5 mM MOPS-Tris pH 7.4, 2 mM Taurine, 0.2% BSA). The homogenate was spun for 5 min at 800g.The supernatant containing the cytoplasmic and mitochondrial fractions were transferred to a fresh tube and spun for 5 min at 12,000g. The pellet contained the mitochondrial fraction and the supernatant contained the cytoplasmic fraction.
Cells were lysed in buffer containing 50 mM Tris pH8.0, 2 mM EDTA, 150 mM NaCl, 0.5% Nonidet P-40, 10% glycerol and protease inhibitor PMSF. Western blot analysis was carried out based on standard methods. The following commercial antibodies were used as probes: anti-Flag antibody (Sigma, F3165), anti-HA antibody (Sigma, H3663), anti-α-Tubulin (EasyBio, BE0026–100), anti-PKM2 (RuiYingBio, RLT3777), anti-TOM 40 (Santa Cruz sc-365467), anti-succinyllysine antibody (PTM BIO PTM-901), anti-GAPDH (SanJian).
For orientation: In western blotting, separated proteins are transferred to a membrane and probed.

A further test concerns the target T1, PKM2-VDAC3 interaction (Homo sapiens, UniProt P14618).
T1 construct: expressed in transfected cells; host or cells: HCT116
The experiment in a line: PKM2-VDAC3 interaction, stag pull down in HCT116 cells. In kind it is cell-based. Conditions: 20 µM, 8 h. As to the method:
as §2
About 2.5 mg whole cellular extracts were prepared in 700 μl RIPA buffer (50 mM Tris-HCl, pH 8.0, 150 mM NaCl, 1.5 mM MgCl2, 0.1% sodium dodecyl sulfate (SDS), 0.5% deoxycholate, 0.5% NP-40, 1 mM phenylmethylsulfonyl fluoride (PMSF), 1× protease inhibitor cocktail (Roche)). […]

Test [3] has as its system outer mitochondrial membrane permeability. Briefly: NADH oxidation assay in mitochondria isolated from HCT116 cells. It counts as cell-based, human. Conditions: 20 µM, 8 h. The method, then:
as §2, with “control […]” for “control”
NADH oxidation in the mitochondria was measured by resuspending mitochondria isolated from HCT116 cells after knockdown or overexpression of PKM2, K433E, K433R, PKM1, or treatment with 20 μM compound 8 for 8 h in 25 mM NADH. Absorbance was monitored at λ = 340 nm. […]

Structures are written as SMILES. Where two headings read alike, the source gives them in different places.

T1 sequence (P14618 whole entry): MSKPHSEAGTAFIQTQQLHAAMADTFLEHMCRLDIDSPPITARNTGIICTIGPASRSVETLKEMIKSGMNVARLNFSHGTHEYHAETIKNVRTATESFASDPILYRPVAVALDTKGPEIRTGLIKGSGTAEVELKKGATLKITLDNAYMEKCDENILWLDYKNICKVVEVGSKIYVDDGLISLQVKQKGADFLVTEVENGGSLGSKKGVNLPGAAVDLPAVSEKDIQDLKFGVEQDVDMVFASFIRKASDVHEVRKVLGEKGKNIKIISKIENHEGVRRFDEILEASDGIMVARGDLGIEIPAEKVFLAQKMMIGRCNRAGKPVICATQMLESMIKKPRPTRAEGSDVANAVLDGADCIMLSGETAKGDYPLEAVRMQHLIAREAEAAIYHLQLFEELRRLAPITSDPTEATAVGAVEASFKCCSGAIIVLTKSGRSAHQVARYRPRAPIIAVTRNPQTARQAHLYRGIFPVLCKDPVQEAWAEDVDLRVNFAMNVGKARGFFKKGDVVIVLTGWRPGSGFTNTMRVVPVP

Take `CCCN(CCC)P(N)(=O)OCC1=CC(=O)c2ccccc2C1=O` (stereo not drawn) [Compound 8]: the half-inhibitory concentration (IC50) (in general, the concentration that gives 50% inhibition) with HCT116 cells (Homo sapiens, HCT-116, 48 h) is about 5 µM; in the test with HCT116 cells, 5.19 ± 1.74 µM. The “apoptosis of PKM2 knockdown cells” value in test [1] was “increased the apoptosis of PKM2 knockdown cells”. In test [2], the PKM2 mitochondrial translocation result is “can restrain PKM2 mitochondrial translocation”. For the same compound, the “interaction of PKM2 with VDAC3” value on PKM2-VDAC3 interaction is “abolished its interaction with VDAC3”. The “rate of NADH oxidation in purified mitochondria” value in test [3] is given as “reduced”.
